# Assays:
# Format in all cases: cell-based
# [1] = tested on: NIH3T3 cells; experiment: Destabilization mutant screening of human CA2 linked to GFP, ligand response by FACS (Valdecoxib, Celecoxib, Acetazolamide)
# [2] = tested on: NIH3T3 cells; experiment: Immunoblotting of cell lysates for GFP after ligand treatment; settings: 24 hours
# Procedure: The protein expression in the presence of ligand was measured by immunoblotting the cell lysates for GFP.
# The protein expression in the presence of ligand was measured by immunoblotting cell lysates for GFP.
# [3] = tested on: NIH3T3 cells; experiment: Destabilization mutant screening of human CA2 linked to GFP, ligand response by FACS (Valdecoxib, Celecoxib, Acetazolamide); remark: listed apart in the source
# Procedure: To identify destabilizing mutations of human CA2 that are stabilized upon ligand binding to CA2, two rounds of mutant screening were performed, using a lentivirus CA2 mutant library provided by Genscript (China). These methods were used to generate a library of mutant polypeptides using mutagenesis primers and error prone PCR. Lentiviral vectors expressing the template, wild-type human CA2 operably linked to GFP(OT-001986) was also provided by Genscript along with the CA2 mutant library. The library was packaged into lentivirus, transduced into NIH3T3 cells at a multiplicity of infection (MOI) of approximately 0.3 and select stable cell pools were derived by selecting with selection marker puromycin.
# To identify cell pools containing destabilizing mutants of CA2 that are stabilizing when CA2 is bound to its corresponding ligand, cells were sorted using FACS. In the initial round, the bottom 15% of population that was GFP negative in the absence of ligand was selected. Cells were expanded and then treated with 10 μM Celecoxib for 24 hours and harvested for cell sorting. The top 11% GFP positive cells which were also responsive to ligand treatment compared to untreated were collected. Celecoxib was removed from the cultures and replaced with DMSO. […] Genomic DNA was isolated and amplified CA2 mutants were reintroduced to the lentiviral vectors where CA2 was operably linked to GFP. The constructs were transduced into NIH3T3 cells with lentivirus vectors for each clone. The cells were treated with 10 μM Valdecoxib or 10 μM Celecoxib for 24 hours and analyzed by FACS. […] In Table 25, the Construct ID (OT-XXXXXX) refers to the construct which includes the referenced CA2 mutant and the Library ID (LibCXXXXXX) refers to the CA2 mutant itself.
# The response of NIH3T3 cells to varying doses of Valdecoxib or Celecoxib for 24 hours was measured and analyzed by FACS.
# Clones treated with different ligands were compared to examine the behavior of each mutant with the ligands.
# [4] = NIH3T3, Celecoxib 0 μM, 24 hours
# [5] = NIH3T3, Celecoxib 0.03 μM, 24 hours
# [6] = NIH3T3, Celecoxib 0.1 μM, 24 hours
# [7] = NIH3T3, Celecoxib 0.3 μM, 24 hours
# [8] = NIH3T3, Celecoxib 1 μM, 24 hours
# [9] = NIH3T3, Celecoxib 3 μM, 24 hours
# [10] = NIH3T3, Celecoxib 10 μM, 24 hours
# [11] = NIH3T3, Celecoxib 30 μM, 24 hours
# [12] = NIH3T3, Valdecoxib 0 μM, 24 hours
# [13] = NIH3T3, Valdecoxib 0.03 μM, 24 hours
# [14] = NIH3T3, Valdecoxib 0.1 μM, 24 hours
# [15] = NIH3T3, Valdecoxib 0.3 μM, 24 hours
# [16] = NIH3T3, Valdecoxib 1 μM, 24 hours
# [17] = NIH3T3, Valdecoxib 3 μM, 24 hours
# [18] = NIH3T3, Valdecoxib 10 μM, 24 hours
# [19] = NIH3T3, Valdecoxib 30 μM, 24 hours
substance,measurement,setting,value
"CA2 (aa 2-260 of WT, L156H, S172C, F178Y, E186D) [LibC000193]",Fold change,"[1]; NIH3T3, Acetazolamide 0.03 μM vs DMSO",1.53
same,Fold change,"[1]; NIH3T3, DMSO (reference), Acetazolamide experiment",1
same,"GFP protein expression by immunoblot, Acetazolamide","[2]; NIH3T3 cells, 0.3, 1, 3, 10 or 30 μM Acetazolamide",stabilization of GFP with increasing ligand doses
same,"GFP protein expression by immunoblot, Celecoxib or Valdecoxib","[2]; NIH3T3 cells, 1, 3, 10 or 30 μM Celecoxib or Valdecoxib",stabilization of GFP with increasing ligand doses
same,Median PE,"[3]; NIH3T3, 10 μM Celecoxib",7428
same,SR (stabilization ratio),"[3]; NIH3T3, 10 μM Celecoxib vs DMSO",10.71
same,Median PE,"[3]; NIH3T3, 10 μM Valdecoxib",6445
same,SR (stabilization ratio),"[3]; NIH3T3, 10 μM Valdecoxib vs DMSO",9.3
same,Median FITC / Median PE,"[3]; NIH3T3, Acetazolamide 0.03 μM, 24 hours",854
same,Fold change,"[3]; NIH3T3, Acetazolamide 0.1 μM vs DMSO",2.92
same,Median FITC / Median PE,"[3]; NIH3T3, Acetazolamide 0.1 μM, 24 hours",1628
same,Fold change,"[3]; NIH3T3, Acetazolamide 0.3 μM vs DMSO",6.59
same,Median FITC / Median PE,"[3]; NIH3T3, Acetazolamide 0.3 μM, 24 hours",3669
same,Fold change,"[3]; NIH3T3, Acetazolamide 1 μM vs DMSO",13.34
same,Median FITC / Median PE,"[3]; NIH3T3, Acetazolamide 1 μM, 24 hours",7445
same,Fold change,"[3]; NIH3T3, Acetazolamide 3 μM vs DMSO",18.31
same,Median FITC / Median PE,"[3]; NIH3T3, Acetazolamide 3 μM, 24 hours",10200
same,"MFI, comparative analysis","[3]; NIH3T3, Acetazolamide 10 μM",11900
same,Fold change,"[3]; NIH3T3, Acetazolamide 10 μM vs DMSO",21.36
same,Median FITC / Median PE,"[3]; NIH3T3, Acetazolamide 10 μM, 24 hours",11900
same,"MFI, comparative analysis","[3]; NIH3T3, Acetazolamide 30 μM",12900
same,Fold change,"[3]; NIH3T3, Acetazolamide 30 μM vs DMSO",23.16
same,Median FITC / Median PE,"[3]; NIH3T3, Acetazolamide 30 μM, 24 hours",12900
same,Med (median fluorescence intensity),[3]; [4],826
same,SR (stabilization ratio),[3]; [4],1
same,Med (median fluorescence intensity),[3]; [5],935
same,SR (stabilization ratio),[3]; [5],1.13
same,Med (median fluorescence intensity),[3]; [6],1005
same,SR (stabilization ratio),[3]; [6],1.22
same,Med (median fluorescence intensity),[3]; [7],1211
same,SR (stabilization ratio),[3]; [7],1.47
same,Med (median fluorescence intensity),[3]; [8],2058
same,SR (stabilization ratio),[3]; [8],2.49
same,Med (median fluorescence intensity),[3]; [9],4283
same,SR (stabilization ratio),[3]; [9],5.19
same,Med (median fluorescence intensity),[3]; [10],7751
same,SR (stabilization ratio),[3]; [10],9.38
same,Med (median fluorescence intensity),[3]; [11],11100
same,SR (stabilization ratio),[3]; [11],13.44
same,"MFI, comparative analysis, normalized to parental day 1","[3]; NIH3T3, Celecoxib μM (concentration not given)",6910.53
same,"MFI, comparative analysis","[3]; NIH3T3, DMSO",557
same,Median PE,"[3]; NIH3T3, DMSO",693
same,SR (stabilization ratio),"[3]; NIH3T3, DMSO (reference)",1
same,Median FITC / Median PE,"[3]; NIH3T3, DMSO, 24 hours (Acetazolamide experiment)",557
same,Med (median fluorescence intensity),[3]; [12],826
same,SR (stabilization ratio),[3]; [12],1
same,Med (median fluorescence intensity),[3]; [13],932
same,SR (stabilization ratio),[3]; [13],1.13
same,Med (median fluorescence intensity),[3]; [14],1013
same,SR (stabilization ratio),[3]; [14],1.23
same,Med (median fluorescence intensity),[3]; [15],1064
same,SR (stabilization ratio),[3]; [15],1.29
same,Med (median fluorescence intensity),[3]; [16],1583
same,SR (stabilization ratio),[3]; [16],1.92
same,Med (median fluorescence intensity),[3]; [17],3667
same,SR (stabilization ratio),[3]; [17],4.44
same,Med (median fluorescence intensity),[3]; [18],7449
same,SR (stabilization ratio),[3]; [18],9.02
same,Med (median fluorescence intensity),[3]; [19],9460
same,SR (stabilization ratio),[3]; [19],11.45
same,"MFI, comparative analysis, normalized to parental day 1","[3]; NIH3T3, Valdecoxib μM (concentration not given)",6641.277
same,stabilization with varying doses of Valdecoxib or Celecoxib,"[3]; NIH3T3 cells, 24 hours, FACS",dose dependent stabilization

# From patent US20230026259A1, “CA2 COMPOSITIONS AND METHODS FOR TUNABLE REGULATION” (Obsidian Therapeutics, Inc., priority 2019, published 2023)
